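Step 1: Grow cells in 96-well plates. Step 2: Expose to compound for 48 hours at 5 concentrations. Step 3: Interpolate endpoints linearly; if unreached, use highest concentration. GI50 is the concentration that inhibits growth by half. TGI is the concentration that stops growth completely.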
Assays:
Test in all cases: NCI anticancer screen, dose series, 48 h
HS 578T breast = tested on: HS 578T breast
OVCAR-3 ovarian = tested on: OVCAR-3 ovarian
SW-620 colon = tested on: SW-620 colon
NCI-H460 lung = tested on: NCI-H460 lung
MOLT-4 leukemia = tested on: MOLT-4 leukemia
IGROV1 ovarian = tested on: IGROV1 ovarian
MDA-MB-231 breast = tested on: MDA-MB-231 breast
SK-MEL-5 melanoma = tested on: SK-MEL-5 melanoma
HOP-62 NSCLC = tested on: HOP-62 NSCLC
OVCAR-5 ovarian = tested on: OVCAR-5 ovarian
RPMI-8226 leukemia = tested on: RPMI-8226 leukemia
HT29 colon = tested on: HT29 colon
MALME-3M melanoma = tested on: MALME-3M melanoma
K-562 leukemia = tested on: K-562 leukemia
HCT-116 colon = tested on: HCT-116 colon
SK-OV-3 ovarian = tested on: SK-OV-3 ovarian
LOX IMVI melanoma = tested on: LOX IMVI melanoma
A498 renal = tested on: A498 renal
SF-268 CNS = tested on: SF-268 CNS
HOP-92 NSCLC = tested on: HOP-92 NSCLC
NCI-H522 lung = tested on: NCI-H522 lung
RXF 393 renal = tested on: RXF 393 renal
SN12C renal = tested on: SN12C renal
T-47D breast = tested on: T-47D breast
MCF7 breast = tested on: MCF7 breast
HCC-2998 colon = tested on: HCC-2998 colon
OVCAR-8 ovarian = tested on: OVCAR-8 ovarian
MDA-MB-435 = tested on: MDA-MB-435
TK-10 renal = tested on: TK-10 renal
CAKI-1 renal = tested on: CAKI-1 renal
ACHN renal = tested on: ACHN renal
SF-295 CNS = tested on: SF-295 CNS
KM12 colon = tested on: KM12 colon
U251 CNS = tested on: U251 CNS
PC-3 prostate = tested on: PC-3 prostate
786-0 renal = tested on: 786-0 renal
UACC-257 melanoma = tested on: UACC-257 melanoma
BT-549 breast = tested on: BT-549 breast
OVCAR-4 ovarian = tested on: OVCAR-4 ovarian
SNB-75 CNS = tested on: SNB-75 CNS
M14 melanoma = tested on: M14 melanoma
NCI/ADR-RES ovarian = tested on: NCI/ADR-RES ovarian
SK-MEL-28 melanoma = tested on: SK-MEL-28 melanoma
SK-MEL-2 melanoma = tested on: SK-MEL-2 melanoma
A549 NSCLC = tested on: A549 NSCLC
SF-539 CNS = tested on: SF-539 CNS
COLO 205 colon = tested on: COLO 205 colon
SNB-19 CNS = tested on: SNB-19 CNS
NCI-H23 lung = tested on: NCI-H23 lung
EKVX NSCLC = tested on: EKVX NSCLC
CCRF-CEM leukemia = tested on: CCRF-CEM leukemia
NCI-H226 lung = tested on: NCI-H226 lung
UO-31 renal = tested on: UO-31 renal
DU-145 prostate = tested on: DU-145 prostate
HCT-15 colon = tested on: HCT-15 colon
UACC-62 melanoma = tested on: UACC-62 melanoma

SMILES: O=C1CC/C(=C\COc2ccc3ccc(=O)oc3c2)O1
- GI50 (HS 578T breast): 11.7 µM
- TGI (HS 578T breast): 81.7 µM
- GI50 (OVCAR-3 ovarian): 4.44 µM
- TGI (OVCAR-3 ovarian): 22 µM
- GI50 (SW-620 colon): 2.35 µM
- TGI (SW-620 colon): 14.9 µM
- GI50 (NCI-H460 lung): 16.8 µM
- TGI (NCI-H460 lung): > 100 µM
- GI50 (MOLT-4 leukemia): 6.41 µM
- TGI (MOLT-4 leukemia): > 100 µM
- GI50 (IGROV1 ovarian): 4.2 µM
- TGI (IGROV1 ovarian): 17.8 µM
- GI50 (MDA-MB-231 breast): 13.8 µM
- TGI (MDA-MB-231 breast): 29.4 µM
- GI50 (SK-MEL-5 melanoma): 14.5 µM
- TGI (SK-MEL-5 melanoma): 32.7 µM
- GI50 (HOP-62 NSCLC): 17.6 µM
- TGI (HOP-62 NSCLC): 38.2 µM
- GI50 (OVCAR-5 ovarian): 17.3 µM
- TGI (OVCAR-5 ovarian): 34.8 µM
- GI50 (RPMI-8226 leukemia): 1.07 µM
- TGI (RPMI-8226 leukemia): 17.3 µM
- GI50 (HT29 colon): 3.04 µM
- TGI (HT29 colon): 17.3 µM
- GI50 (MALME-3M melanoma): 3.47 µM
- TGI (MALME-3M melanoma): 24.4 µM
- GI50 (K-562 leukemia): 9.89 µM
- TGI (K-562 leukemia): > 100 µM
- GI50 (HCT-116 colon): 6.25 µM
- TGI (HCT-116 colon): 22.8 µM
- GI50 (SK-OV-3 ovarian): 27.8 µM
- TGI (SK-OV-3 ovarian): > 100 µM
- GI50 (LOX IMVI melanoma): 6.96 µM
- TGI (LOX IMVI melanoma): 20.6 µM
- GI50 (A498 renal): 16.8 µM
- TGI (A498 renal): 44 µM
- GI50 (SF-268 CNS): 11.9 µM
- TGI (SF-268 CNS): 63 µM
- GI50 (HOP-92 NSCLC): 10.6 µM
- TGI (HOP-92 NSCLC): 25.5 µM
- GI50 (NCI-H522 lung): 1.76 µM
- TGI (NCI-H522 lung): 5.83 µM
- GI50 (RXF 393 renal): 8.41 µM
- TGI (RXF 393 renal): 31.9 µM
- GI50 (SN12C renal): 10.3 µM
- TGI (SN12C renal): 28.8 µM
- GI50 (T-47D breast): 4.83 µM
- TGI (T-47D breast): 27.1 µM
- GI50 (MCF7 breast): 3.61 µM
- TGI (MCF7 breast): 33.8 µM
- GI50 (HCC-2998 colon): 17 µM
- TGI (HCC-2998 colon): 35.6 µM
- GI50 (OVCAR-8 ovarian): 16.6 µM
- TGI (OVCAR-8 ovarian): 40.8 µM
- GI50 (MDA-MB-435): 3.41 µM
- TGI (MDA-MB-435): 17.5 µM
- GI50 (TK-10 renal): 2.83 µM
- TGI (TK-10 renal): 17.7 µM
- GI50 (CAKI-1 renal): 1.97 µM
- TGI (CAKI-1 renal): 20.6 µM
- GI50 (ACHN renal): 0.386 µM
- TGI (ACHN renal): 2.02 µM
- GI50 (SF-295 CNS): 43.5 µM
- TGI (SF-295 CNS): > 100 µM
- GI50 (KM12 colon): 10.1 µM
- TGI (KM12 colon): 45.2 µM
- GI50 (U251 CNS): 10.3 µM
- TGI (U251 CNS): 22.8 µM
- GI50 (PC-3 prostate): 1.68 µM
- TGI (PC-3 prostate): 18.3 µM
- GI50 (786-0 renal): 2.89 µM
- TGI (786-0 renal): 15.9 µM
- GI50 (UACC-257 melanoma): 13.6 µM
- TGI (UACC-257 melanoma): 30 µM
- GI50 (BT-549 breast): 10.2 µM
- TGI (BT-549 breast): 26.4 µM
- GI50 (OVCAR-4 ovarian): 4.78 µM
- TGI (OVCAR-4 ovarian): 23.7 µM
- GI50 (SNB-75 CNS): 12.7 µM
- TGI (SNB-75 CNS): 30.2 µM
- GI50 (M14 melanoma): 3.28 µM
- TGI (M14 melanoma): 13.9 µM
- GI50 (NCI/ADR-RES ovarian): 14.9 µM
- TGI (NCI/ADR-RES ovarian): 43 µM
- GI50 (SK-MEL-28 melanoma): 15.3 µM
- TGI (SK-MEL-28 melanoma): 32.7 µM
- GI50 (SK-MEL-2 melanoma): 10.9 µM
- TGI (SK-MEL-2 melanoma): 36.8 µM
- GI50 (A549 NSCLC): 24.1 µM
- TGI (A549 NSCLC): > 100 µM
- GI50 (SF-539 CNS): 2.62 µM
- TGI (SF-539 CNS): 19.2 µM
- GI50 (COLO 205 colon): 3.21 µM
- TGI (COLO 205 colon): 17.5 µM
- GI50 (SNB-19 CNS): 13.2 µM
- TGI (SNB-19 CNS): 36.8 µM
- GI50 (NCI-H23 lung): 11.7 µM
- TGI (NCI-H23 lung): 30 µM
- GI50 (EKVX NSCLC): 16.7 µM
- TGI (EKVX NSCLC): 46.4 µM
- GI50 (CCRF-CEM leukemia): 2.42 µM
- TGI (CCRF-CEM leukemia): 13.6 µM
- GI50 (NCI-H226 lung): 22.4 µM
- TGI (NCI-H226 lung): 83.1 µM
- GI50 (UO-31 renal): 6.41 µM
- TGI (UO-31 renal): 21.4 µM
- GI50 (DU-145 prostate): 1.89 µM
- TGI (DU-145 prostate): 14.1 µM
- GI50 (HCT-15 colon): 3.84 µM
- TGI (HCT-15 colon): 17.1 µM
- GI50 (UACC-62 melanoma): 10.8 µM
- TGI (UACC-62 melanoma): 24.7 µM

From PubChem BioAssay (NCI)
